Results published in article PMC4769034 (Journal of medicinal chemistry, 2015).
≈ marks a conversion by molar mass, not a printed value. Entries after “also recorded” stand apart in the source; their conditions may differ. Blank lines part the entries; values can stand above or below the compound they belong to.

How the values were obtained:
EPAC2 = target: T1, EPAC2 (Mus musculus, UniProt Q9EQZ6); experiment: 8-NBD-cAMP competition assay; conditions: for EPAC2 binding activity in words: 8-NBD-cAMP competition; for fold increase in potency compared to nonsubstituted analogue 8: vs compound 8; for fold loss of EPAC2 binding affinity / inhibitory activity in comparison with 1 / fold more potent than parent compound 1: vs compound 1
T1 sequence (Q9EQZ6 1-993 isoform Q9EQZ6-3): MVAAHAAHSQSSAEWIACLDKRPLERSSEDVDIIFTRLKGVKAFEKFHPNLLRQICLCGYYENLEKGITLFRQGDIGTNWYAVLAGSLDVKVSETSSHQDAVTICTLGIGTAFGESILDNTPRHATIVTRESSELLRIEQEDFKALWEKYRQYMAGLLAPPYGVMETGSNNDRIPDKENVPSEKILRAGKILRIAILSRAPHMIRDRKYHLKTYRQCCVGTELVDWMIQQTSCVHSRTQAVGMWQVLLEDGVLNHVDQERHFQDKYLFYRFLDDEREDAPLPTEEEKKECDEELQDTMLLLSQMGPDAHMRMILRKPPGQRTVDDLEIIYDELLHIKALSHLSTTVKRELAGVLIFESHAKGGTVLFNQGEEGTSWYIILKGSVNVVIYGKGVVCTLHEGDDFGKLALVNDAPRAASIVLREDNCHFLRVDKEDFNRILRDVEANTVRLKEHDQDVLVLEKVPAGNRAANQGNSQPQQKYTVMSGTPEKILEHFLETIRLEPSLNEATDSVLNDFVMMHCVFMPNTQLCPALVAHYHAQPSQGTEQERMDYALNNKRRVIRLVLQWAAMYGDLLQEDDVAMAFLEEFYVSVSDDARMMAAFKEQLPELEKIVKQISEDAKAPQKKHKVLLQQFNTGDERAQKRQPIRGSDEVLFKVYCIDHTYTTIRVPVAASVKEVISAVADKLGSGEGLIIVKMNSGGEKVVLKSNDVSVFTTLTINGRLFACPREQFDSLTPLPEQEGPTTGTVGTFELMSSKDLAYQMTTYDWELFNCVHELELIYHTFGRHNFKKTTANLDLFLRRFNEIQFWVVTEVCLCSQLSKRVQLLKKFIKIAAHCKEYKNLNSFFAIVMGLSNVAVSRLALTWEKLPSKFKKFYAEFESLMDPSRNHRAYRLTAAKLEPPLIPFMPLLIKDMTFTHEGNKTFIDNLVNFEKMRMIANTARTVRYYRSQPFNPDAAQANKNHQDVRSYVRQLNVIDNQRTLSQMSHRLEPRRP

[1] = Solubility in water by HPLC analysis; conditions: water
EPAC1 = target: T2, EPAC1 (Homo sapiens, UniProt O95398); experiment: In vitro EPAC1 GEF activity assay; assay type: biochemical
T2 sequence (O95398 1-881 isoform O95398-3): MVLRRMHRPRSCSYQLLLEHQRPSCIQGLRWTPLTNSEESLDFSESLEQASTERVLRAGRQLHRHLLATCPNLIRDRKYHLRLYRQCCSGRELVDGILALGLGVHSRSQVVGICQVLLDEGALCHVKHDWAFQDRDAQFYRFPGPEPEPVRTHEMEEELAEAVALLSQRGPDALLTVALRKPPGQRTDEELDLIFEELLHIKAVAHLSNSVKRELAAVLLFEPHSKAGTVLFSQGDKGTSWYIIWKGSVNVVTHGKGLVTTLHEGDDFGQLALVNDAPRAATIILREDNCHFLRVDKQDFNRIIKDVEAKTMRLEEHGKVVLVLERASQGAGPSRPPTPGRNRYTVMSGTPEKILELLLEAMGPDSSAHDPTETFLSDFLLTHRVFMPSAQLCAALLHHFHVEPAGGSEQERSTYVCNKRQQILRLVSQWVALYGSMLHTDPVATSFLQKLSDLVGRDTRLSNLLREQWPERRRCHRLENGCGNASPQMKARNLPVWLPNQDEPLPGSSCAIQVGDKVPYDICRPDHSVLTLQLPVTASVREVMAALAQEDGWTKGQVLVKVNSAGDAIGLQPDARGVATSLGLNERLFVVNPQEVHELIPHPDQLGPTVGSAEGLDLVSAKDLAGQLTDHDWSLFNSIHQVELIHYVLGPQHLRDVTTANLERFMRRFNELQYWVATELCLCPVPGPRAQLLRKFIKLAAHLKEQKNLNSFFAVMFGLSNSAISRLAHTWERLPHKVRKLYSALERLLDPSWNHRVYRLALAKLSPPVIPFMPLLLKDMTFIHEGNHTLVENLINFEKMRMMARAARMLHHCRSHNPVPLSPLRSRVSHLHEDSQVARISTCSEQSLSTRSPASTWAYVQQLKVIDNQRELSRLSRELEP

SMILES: N#C/C(=N\Nc1cc(Cl)c(Cl)c(Cl)c1)C(=O)c1cc(-c2ccccc2)on1 [Compound 48, N′-(3,4,5-Trichlorophenyl)-2-oxo-2-(5-phenylisoxazol-3-yl)-acetohydrazonoyl Cyanide]
EPAC2 binding activity in words (EPAC2): totally inactive

SMILES: CC(C)(C)c1cc(C(=O)/C(C#N)=N/Nc2cccc(Br)c2)no1 [Compound 11, 2-(5-tert-Butylisoxazol-3-yl)-N′-(3-bromophenyl)-2-oxoacetohydrazonoyl Cyanide]
fold increase in potency compared to nonsubstituted analogue 8 (EPAC2): 3–4 fold

SMILES: CC(C)(C)c1cc(C(=O)/C(C#N)=N/Nc2cc(F)c(F)c(F)c2)no1 [Compound 36, 2-(5-tert-Butylisoxazol-3-yl)-2-oxo-N′-(3,4,5-trifluorophenyl)acetohydrazonoyl Cyanide]
solubility at 24 h [1]: 75.7 ± 7.1 µg/mL (≈ 216 µM)

SMILES: CC(C)(C)c1cc(C(=O)/C(C#N)=N/Nc2ccccc2)no1 [Compound 8, 2-(5-tert-Butylisoxazol-3-yl)-N′-phenyl-2-oxoacetohydrazonoyl Cyanide]
fold loss of EPAC2 binding affinity / inhibitory activity in comparison with 1 (EPAC2): ~7 fold

SMILES: CC(=O)c1cccc(N/N=C(\C#N)C(=O)c2cc(C(C)(C)C)on2)c1 [Compound 17, N′-(3-Acetylphenyl)-2-(5-tert-butylisoxazol-3-yl)-2-oxoacetohydrazonoyl Cyanide]
EPAC2 binding activity in words (EPAC2): dramatic loss of activity

SMILES: CC(C)(C)c1cc(C(=O)/C(C#N)=N/Nc2ccc(F)c(Cl)c2)no1 [Compound 31, 2-(5-tert-Butylisoxazol-3-yl)-N′-(3-chloro-4-fluorophenyl)-2-oxoacetohydrazonoyl Cyanide]
solubility at 24 h [1]: 82.6 ± 3.6 µg/mL (≈ 237 µM)

SMILES: CC(C)(C)c1cc(C(=O)/C(C#N)=N/Nc2cccc(CO)c2)no1 [Compound 19, 2-(5-tert-Butylisoxazol-3-yl)-N′-(3-(hydroxymethyl)phenyl)-2-oxoacetohydrazonoyl Cyanide]
EPAC2 binding activity in words (EPAC2): significant loss of activity

SMILES: CC(C)(C)c1cc(C(=O)/C(C#N)=N/Nc2cc(Cl)cc(Cl)c2)no1 [Compound 22, 2-(5-tert-Butylisoxazol-3-yl)-N′-(3,5-dichlorophenyl)-2-oxoacetohydrazonoyl Cyanide]
fold more potent than parent compound 1 (EPAC2): about 5 fold
IC50 (EPAC1): < 5 µM

SMILES: CC(C)(C)c1cc(C(=O)/C(C#N)=N/Nc2cccc([N+](=O)[O-])c2)no1 [Compound 14, 2-(5-tert-Butylisoxazol-3-yl)-N′-(3-nitrophenyl)-2-oxoacetohydrazonoyl Cyanide]
fold increase in potency compared to nonsubstituted analogue 8 (EPAC2): about 2 fold

SMILES: CC(C)(C)c1cc(C(=O)/C(C#N)=N/Nc2ccccc2Cl)no1 [Compound 9, 2-(5-tert-Butylisoxazol-3-yl)-N′-(2-chlorophenyl)-2-oxoacetohydrazonoyl Cyanide]
fold loss of EPAC2 binding affinity / inhibitory activity in comparison with 1 (EPAC2): 3 fold

SMILES: CC(C)(C)c1cc(C(=O)/C(C#N)=N/Nc2cccc(C(F)(F)F)c2)no1 [Compound 13, 2-(5-tert-Butylisoxazol-3-yl)-N′-(3-trifluoromethylphenyl)-2-oxoacetohydrazonoyl Cyanide]
fold increase in potency compared to nonsubstituted analogue 8 (EPAC2): approximately 5 fold

SMILES: CC(C)(C)c1cc(NC(=O)Nc2cccc(Cl)c2)no1 [Compound 54, 1-(5-tert-Butylisoxazol-3-yl)-3-(3-chlorophenyl)urea]
EPAC2 binding activity in words (EPAC2): entire loss of potency; also recorded: no significant activity

SMILES: N#C/C(=N\Nc1cccc(Cl)c1)C(=O)c1cc(-c2ccccc2)on1 [Compound 41, N′-(3-Chlorophenyl)-2-oxo-2-(5-phenylisoxazol-3-yl)-acetohydrazonoyl Cyanide]
EPAC2 binding activity in words (EPAC2): totally inactive

SMILES: Cc1cccc(N/N=C(\C#N)C(=O)c2cc(C(C)(C)C)on2)c1 [Compound 20, 2-(5-tert-Butylisoxazol-3-yl)-2-oxo-N′-m-tolylacetohydrazonoyl Cyanide]
fold increase in potency compared to nonsubstituted analogue 8 (EPAC2): about 2 fold

SMILES: CC(C)(C)c1cc(C(=O)/C(C#N)=N/Nc2cc(Cl)c(Cl)c(Cl)c2)no1 [Compound 35, 2-(5-tert-Butylisoxazol-3-yl)-2-oxo-N′-(3,4,5-trichlorophenyl)acetohydrazonoyl Cyanide]
solubility at 24 h [1]: 12.7 ± 1 µg/mL (≈ 31.8 µM)

SMILES: CC(C)(C)c1cc(C(=O)/C(C#N)=N/Nc2ccc(Cl)c(Cl)c2)no1 [Compound 23, 2-(5-tert-Butylisoxazol-3-yl)-N′-(3,4-dichlorophenyl)-2-oxoacetohydrazonoyl Cyanide]
fold more potent than parent compound 1 (EPAC2): ~3 fold

EPAC2 binding activity in words (EPAC2): completely inactive
SMILES: Cc1cc(NC(=O)C(C#N)=NNc2cccc(Cl)c2)no1 [Compound 52, 2-[(3-Chlorophenyl)-hydrazono]-2-cyano-N-(5-methyl-isoxazol-3-yl)acetamide]

SMILES: CC(C)(C)c1cc(NC(=O)c2cccc(Cl)c2)no1 [Compound 53, N-(5-(tert-Butyl)isoxazol-3-yl)-3-chlorobenzamide]
EPAC2 binding activity in words (EPAC2): entire loss of potency; also recorded: no significant activity

SMILES: COc1cccc(N/N=C(\C#N)C(=O)c2cc(C(C)(C)C)on2)c1 [Compound 18, 2-(5-tert-Butylisoxazol-3-yl)-N′-(3-methoxyphenyl)-2-oxoacetohydrazonoyl Cyanide]
EPAC2 binding activity in words (EPAC2): significant loss of activity

SMILES: N#C/C(=N\Nc1cc(Cl)c(Cl)c(Cl)c1)C(=O)c1cc(C2CCCCC2)on1 [Compound 47, 2-(5-Cyclohexylisoxazol-3-yl)-2-oxo-N′-(3,4,5-trichlorophenyl)acetohydrazonoyl Cyanide]
solubility at 24 h [1]: 10.1 ± 0.79 µg/mL (≈ 23.7 µM)

SMILES: CC(C)(C)c1cc(-c2n[nH]c(N)c2/N=N/c2cccc(Cl)c2)no1 [Compound 57, 3-(5-tert-Butylisoxazol-3-yl)-4-((3-chlorophenyl)diazenyl)-1H-pyrazol-5-amine]
EPAC2 binding activity in words (EPAC2): entire loss of potency; also recorded: no significant activity

EPAC2 binding activity in words (EPAC2): completely inactive
SMILES: CC(C)(C)c1cc(NC(=O)C(C#N)=NNc2cccc(Cl)c2)no1 [Compound 51, N-(5-tert-Butyl-isoxazol-3-yl)-2-[(3-chlorophenyl)-hydrazono]-2-cyanoacetamide]

SMILES: CC(C)(C)c1cc(C(=O)N/N=C/c2cccc(Cl)c2)no1 [Compound 56, (E)-5-(tert-Butyl)-N′-(3-chlorobenzylidene)isoxazole-3-carbohydrazide]
EPAC2 binding activity in words (EPAC2): entire loss of potency; also recorded: no significant activity

SMILES: CC(C)(C)c1cc(C(=O)Nc2cccc(Cl)c2)no1 [Compound 55, 5-tert-Butyl-N-(3-chlorophenyl)isoxazole-3-carboxamide]
EPAC2 binding activity in words (EPAC2): entire loss of potency; also recorded: no significant activity

SMILES: CC(C)(C)c1cc(C(=O)/C(C#N)=N/Nc2cccc(F)c2)no1 [Compound 12, 2-(5-tert-Butylisoxazol-3-yl)-N′-(3-fluorophenyl)-2-oxoacetohydrazonoyl Cyanide]
fold increase in potency compared to nonsubstituted analogue 8 (EPAC2): 3–4 fold

SMILES: CC(C)(C)c1cc(C(=O)/C(C#N)=N/Nc2ccc(Cl)cc2)no1 [Compound 10, 2-(5-tert-Butylisoxazol-3-yl)-N′-(4-chlorophenyl)-2-oxoacetohydrazonoyl Cyanide]
fold loss of EPAC2 binding affinity / inhibitory activity in comparison with 1 (EPAC2): 3 fold
